Common to all, as to experiment: inhibition of tumour cell growth, NCI panel, 48 h
Experiment [1] has as its system A549 NSCLC.
Experiment [2] concerns COLO 205 colon.
The subject of experiment [3] is HCT-116 colon.
Experiment [4] deals with HCT-15 colon.
The test system of experiment [5] is HS 578T breast.
Experiment [6] deals with KM12 colon.
Experiment [7] has as its system LOX IMVI melanoma.
For experiment [8], the system named is M14 melanoma.
Experiment [9] relates to MOLT-4 leukemia.
In experiment [10] the test system is NCI-H226 lung.
The test system of experiment [11] is OVCAR-8 ovarian.
The test system of experiment [12] is PC-3 prostate.
The test system of experiment [13] is RPMI-8226 leukemia.
The subject of experiment [14] is RXF 393 renal.
Experiment [15] relates to SF-268 CNS.
In experiment [16] the test system is SF-295 CNS.
Experiment [17] relates to SK-MEL-5 melanoma.
For experiment [18], the system named is SNB-75 CNS.
In experiment [19] the test system is UACC-62 melanoma.
For experiment [20], the system named is UO-31 renal.

The values below come from PubChem BioAssay (NCI).

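Where inhibition never reached the appropriate level, the endpoint shown equals the highest concentration tested. Otherwise, values were interpolated linearly from a five-concentration, 48-hour dose response in 96-well plates. At the TGI there is no net growth.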

For the compound `COC(=O)C1=CS/C(=C2\S[C@@H]3[C@H](S2)[C@H]2C=C[C@@H]3C2)S1`, the TGI in [1], in experiment [2], in experiment [3], in experiment [4], in experiment [5] and in [6] was > 100 µM throughout. Also, the TGI in experiment [7], in experiment [8], in [9], in experiment [10], in [11] and in experiment [12] was > 100 µM in each case. The TGI was > 100 µM in experiment [13]; > 100 µM in [14]; > 100 µM in experiment [15]; 17.9 µM in [16]; > 100 µM in experiment [17]; > 100 µM in experiment [18]. Moreover, the TGI in experiment [19] and in [20] was > 100 µM in each case.
Regarding `Nc1nc(-c2ccccc2)cc(-c2ccc(OCc3ccccc3)cc2O)n1`, the TGI in experiment [1], in [2], in [3], in experiment [4], in experiment [5] and in experiment [6] was > 100 µM each time. Further, the TGI in [7], in [8], in experiment [9], in experiment [10], in [11] and in experiment [12] was > 100 µM throughout. Further, the TGI in experiment [13] was 60.9 µM; in [14], 76.8 µM; in [15], > 100 µM; in experiment [16], > 100 µM; in experiment [17], 35.5 µM; in experiment [18] it was > 100 µM. The TGI in experiment [19] and in [20] was > 100 µM throughout.
On to `CCOC(=O)c1c(N2CCOCC2)[nH]c(=O)c(C(c2c(Cl)cccc2Cl)c2c(O)c(C(=O)OCC)c(N3CCOCC3)[nH]c2=O)c1O`, for which the TGI in [1] is 32.5 µM; in experiment [2], 14.9 µM; in [3], 8.83 µM; in experiment [4] it was 15.6 µM; in experiment [5] it was 19.4 µM; in experiment [6], 33.2 µM. Besides, the TGI was found to be 9.08 µM in experiment [7]; 5.15 µM in [8]; 5.51 µM in [9]; 27.3 µM in experiment [10]; 20.5 µM in experiment [11]; 29.1 µM in experiment [12]. Besides, the TGI in [13] amounted to 5.27 µM; in [14], 4.93 µM; in experiment [15], 22.2 µM; in experiment [16] it was 30.6 µM; in experiment [17], 16.1 µM; in [18], 15.6 µM. In addition, the TGI was 20 µM in experiment [19] and 6.37 µM in experiment [20].
In the case of `O=C1CC(c2cccc([N+](=O)[O-])c2)C2(C(=O)NC(=O)NC2=O)C(c2cccc([N+](=O)[O-])c2)C1` (centres undefined), the TGI in experiment [1] was > 100 µM; in experiment [2], > 100 µM; in experiment [3], 42.8 µM; in [4], > 100 µM; in [5], > 100 µM; in [6] it was > 100 µM. Besides, the TGI in [7], in [8], in experiment [9], in experiment [10], in experiment [11] and in experiment [12] was > 100 µM throughout. In addition, the TGI in [13] is > 100 µM; in experiment [14], 61.1 µM; in experiment [15], 84.1 µM; in experiment [16] it was > 100 µM; in experiment [17], > 100 µM; in experiment [18] it was > 100 µM. For the same compound, the TGI in experiment [19] and in [20] was > 100 µM throughout.
In the case of `CCCCCCCCCCCC(=O)OCC(C[As](=O)(O)O)OC(=O)CCCCCCCCCCC` (centres undefined), the TGI is 25.8 µM in experiment [1]; 25.4 µM in experiment [2]; 18.3 µM in experiment [3]; 25.5 µM in [4]; 13.3 µM in [5]; 21.6 µM in [6]. Moreover, the TGI in experiment [7] is 18.3 µM; in [8] it was 4.48 µM; in [9] it was > 41.6 µM; in experiment [10], 42.9 µM; in [11], 24.8 µM; in [12], 9.52 µM. The TGI in experiment [13] is > 62 µM; in experiment [14] it was 5.86 µM; in [15], > 34.1 µM; in [16] it was 26.7 µM; in experiment [17], 3.64 µM; in experiment [18], 21.1 µM. The TGI is 3.95 µM in [19] and 17.4 µM in experiment [20].
Turning to `CCOC(=O)Cc1nc2cc(F)c(F)cc2[nH]c1=O`, the TGI in experiment [1], in [2], in experiment [3], in [4], in [5] and in [6] was > 100 µM throughout. Also, the TGI in experiment [7], in experiment [8], in [9], in experiment [10], in [11] and in experiment [12] was > 100 µM throughout. Also, the TGI in [13], in experiment [14], in experiment [15], in experiment [16], in experiment [17] and in experiment [18] was > 100 µM each time. Moreover, the TGI in experiment [19] and in experiment [20] was > 100 µM in each case.
Take `COc1cc2cc3c4cc(OC)c(OC)cc4cc[n+]3c(C)c2cc1OC` (tested in a mixture with another compound): the TGI in experiment [1] was > 100 µM; in experiment [2], > 87.9 µM; in experiment [3], > 100 µM; in experiment [4], > 100 µM; in experiment [5], > 100 µM; in [6], > 100 µM. Besides, the TGI in experiment [7] was > 100 µM; in experiment [8], > 100 µM; in [9] it was > 100 µM; in experiment [10] it was > 45.6 µM; in [11] it was > 100 µM; in [12], > 100 µM. Besides, the TGI was > 100 µM in experiment [13]; > 100 µM in experiment [14]; > 95 µM in experiment [15]; > 100 µM in experiment [16]; > 100 µM in [17]; > 88.3 µM in experiment [18]. Further, the TGI in [19] and in [20] was > 100 µM throughout.
For the compound `O=C(N/N=C\C=C\c1ccc([N+](=O)[O-])o1)C(=O)N/N=C\C=C\c1ccc([N+](=O)[O-])o1`, the TGI in [1], in [2], in experiment [3], in experiment [4], in [5] and in [6] was > 100 µM throughout. For the same compound, the TGI was > 100 µM in experiment [7]; > 100 µM in [8]; > 100 µM in experiment [9]; > 100 µM in [10]; 59.1 µM in experiment [11]; > 100 µM in [12]. For the same compound, the TGI in experiment [13], in [14], in experiment [15], in experiment [16], in experiment [17] and in [18] was > 100 µM in each case. The TGI in experiment [19] and in experiment [20] was > 100 µM in each case.
With `Cc1ccc2c(c1)CC1(Cc3ccccc3C1=O)C2=O` (centres undefined), the TGI in experiment [1], in [2], in [3], in experiment [4], in [5] and in experiment [6] was > 100 µM in each case. In addition, the TGI in experiment [7], in experiment [8], in experiment [9], in experiment [10], in [11] and in experiment [12] was > 100 µM throughout. The TGI in experiment [13], in experiment [14], in experiment [15], in experiment [16], in experiment [17] and in experiment [18] was > 100 µM each time. Also, the TGI in experiment [19] and in experiment [20] was > 100 µM throughout.
For `CO/C=C(/C(=O)OC)c1ccccc1COc1cccc(C(F)(F)F)c1`, the TGI in [1] is > 100 µM; in experiment [2] it was 28.5 µM; in [3], > 100 µM; in experiment [4], > 100 µM; in experiment [5] it was > 100 µM; in experiment [6], > 100 µM. Also, the TGI is 13.6 µM in experiment [7]; > 100 µM in experiment [8]; > 100 µM in experiment [9]; 71.2 µM in experiment [10]; > 100 µM in experiment [11]; > 100 µM in experiment [12]. The TGI is 7.31 µM in [13]; 78.3 µM in experiment [14]; > 100 µM in [15]; > 100 µM in [16]; 14.5 µM in [17]; 64.8 µM in experiment [18]. For the same compound, the TGI in [19] was determined as 42 µM; in experiment [20] it was 77 µM.
With `COC(=O)c1cc2c(cc1CC(Cc1ccc3c(c1)CCCC3)C(=O)OC)CCCC2` (centres undefined), the TGI in experiment [1], in experiment [2], in experiment [3], in [4], in experiment [5] and in [6] was > 100 µM throughout. In addition, the TGI in [7], in experiment [8], in experiment [9], in [10], in experiment [11] and in experiment [12] was > 100 µM in each case. For the same compound, the TGI in experiment [13] was 91.4 µM; in experiment [14], 72.9 µM; in experiment [15] it was > 100 µM; in [16], > 100 µM; in experiment [17], > 100 µM; in [18], > 100 µM. The TGI in [19] and in experiment [20] was > 100 µM throughout.
In the case of `CCCCCCCCCCCCCCCC(=O)OCC(C[As](=O)(O)O)OC(=O)CCCCCCCCCCCCCCC` (centres undefined), the TGI in experiment [1], in experiment [2], in [3], in experiment [4], in [5] and in experiment [6] was > 100 µM each time. Also, the TGI in [7], in [8], in experiment [9], in experiment [10], in [11] and in experiment [12] was > 100 µM each time. Besides, the TGI was > 100 µM in experiment [13]; > 100 µM in experiment [14]; > 100 µM in experiment [15]; > 100 µM in experiment [16]; > 100 µM in experiment [17]; > 96.7 µM in experiment [18]. For the same compound, the TGI in experiment [19] and in experiment [20] was > 100 µM each time.
Take `NNC(=S)N/N=C(/C(=O)Nc1ccc(Cl)c(Cl)c1)C(C1OC(=O)c2ccccc21)[N+](=O)[O-]` (centres undefined): the TGI in [1], in experiment [3], in experiment [4], in experiment [5], in experiment [6] and in experiment [7] was > 100 µM each time. Further, the TGI in experiment [8], in experiment [9], in experiment [10], in experiment [11], in [12] and in experiment [13] was > 100 µM in each case. Besides, the TGI in experiment [14], in experiment [15], in experiment [16], in experiment [17], in experiment [18] and in [19] was > 100 µM throughout. Besides, the TGI in experiment [20] is > 100 µM.
